The values below come from patent US20250195672A1, “DENDRIMER COMPOSITIONS FOR TARGETED DELIVERY OF THERAPEUTICS TO NEURONS” (priority 2022, published 2025).

The structures appear in SMILES notation. “Also recorded” adds a separate entry of the source.

This assay has as its system YFP-expressing cortical neurons. Nature of the assay: GD2-Cy5 uptake in ex vivo cortical brain sections: neuronal activity and glucose transporter blockade. In kind it is cell-based, mouse. The note with it: 30 minutes pre-treatment in Mg2+ free ACSF: cytochalasin B 5 μM, glutor 10 μM, phlorizin 10 μM, GD2-Cy5 10 μg/ml. The method, then: FIG. 9A is scheme of the experiment in which 300 μm cortical brain sections were pre-treated for 30 minutes with control ACSF (Mg2+ free, increases neuronal firing) or ACSF containing Mg2+/NMDG (suppressed neuronal activity) or control ACSF with either cytochalasin B (5 μM) or glutor ([…]). After pre-treatment, brain sections were incubated with GD2-Cy5 (10 μg/ml) for 30 minutes followed by 10% formalin fixation and confocal imaging.
300 μm cortical brain sections were pre-treated for 30 minutes with Mg2+ free artificial cerebrospinal fluid (ACSF) (increases neuronal firing) or ACSF containing Mg2+/NMDG (suppressed neuronal activity) or Mg2+ free ACSF with cytochalasin B (5 μM) or glutor (10 μM) or phlorizin (10 μM). After pre-treatment, brain sections were incubated with GD2-Cy5 (10 μg/ml) for 30 minutes followed by formalin fixation and confocal imaging. Mean fluorescence intensities for GD-Cy5 were evaluated in YFP-expressing cortical neurons. Confocal images of fixed sections showing DAPI (nucleus), YFP (neurons) and GD2-Cy5 with different treatments were taken and analyzed.
CP rabbit kits or Thy1-YFP mice were deeply anesthetized with isoflurane and decapitated. Brains were removed and transferred to oxygenated (95% O2/5% CO2), ice-cold N-Methyl-D-glucamin (NMDG)-based buffer (Buffer1, in mM: 92 NMDG, 2.5 KCl, 10 MgSO4, 0.5 CaCl2, 1.2 NaH2PO4, 30 NaHCO3, 25 glucose, 20 HEPES, 5 sodium ascorbate, 3 sodium pyruvate, 2 thiourea; pH 7.4). Coronal brain slices ([…]) were then obtained using a vibratome (VT1200, Leica). Slices were first incubated in the NMDG-based solution at 34° C. for 10 minutes, then transferred and maintained in the same solution for an hour at room temperature before starting subsequent experiment. Dendrimer-Cy5 was added in 5 ml of Buffer2 (in mM: 125 NaCl, 2.5 KCl, 1 MgCl2, 2 CaCl2, 1.25 NaH2PO4, 26 NaHCO3, 20 glucose; pH 7.4) containing brain slices and incubated for 30 min while oxygenation at room temperature. […]
`O=C(CCc1ccc(O)cc1)c1c(O)cc(O)cc1O[C@@H]1O[C@H](CO)[C@@H](O)[C@H](O)[C@H]1O` [Phlorizin]: the “Effect of transporter blocker pre-treatment on GD2 uptake by neurons” value (from here on “Effect”) is on record as “diminished GD2 uptake”.
Turning to `C=C1[C@@H](C)[C@H]2[C@H](Cc3ccccc3)NC(=O)[C@]23OC(=O)/C=C/[C@H](O)CCC[C@@H](C)C/C=C/[C@H]3[C@@H]1O` [cytochalasin B], the “Effect” value is recorded as “diminished GD2 uptake; also recorded: significantly decreased”.
As to `C[C@@]1(C(=O)NCc2cccnc2)Cn2nc(-c3ccccc3)cc2C(=O)N1Cc1ccc(N2CCOCC2)cc1` [glutor], the “Effect” value is “diminished GD2 uptake; also recorded: significantly decreased”.
